IC50 data for nine compounds are collected here from BindingDB's records for doi:10.1016/j.bmcl.2015.11.049 (Genomics Institute of The Novartis Research Foundation, 2016).

Assay [1] can be described thus: Inhibition of […] (unknown origin) expressed in mouse BaF3 cells assessed as reduction in cell proliferation incubated for 2 to 3 days by Bright-Glo luciferase assay.
Assay [2] is described as follows: Inhibition of PDK1 (unknown origin).
Assay [3] can be described thus: Inhibition of […] (unknown origin) expressed in human KARPAS-299 cells assessed as reduction in cell growth.
A short description of assay [4]: Inhibition of Tel fused InsR (unknown origin) expressed in mouse BaF3 cells assessed as reduction in cell proliferation incubated for 2 to 3 days by Bright-Glo luciferase assay.

The IC50 is the midpoint of a concentration-inhibition curve. Take `Cc1cc(Nc2nc(Nc3ccccc3S(=O)(=O)C(C)C)c3cn[nH]c3n2)c(OC(C)C)cc1C1CCNCC1`: the IC50 in assay [1] turned out to be 0.033 µM.

For the compound `Cc1cc(Nc2nc(Nc3ccccc3S(=O)(=O)C(C)C)c3c(N)n[nH]c3n2)c(OC(C)C)cc1C1CCN(C)CC1`, in assay [1], the IC50 amounted to 0.15 µM.

On to `Cc1cc(Nc2nc(Nc3ccccc3S(=O)(=O)C(C)C)c3cc[nH]c3n2)c(OC(C)C)cc1C1CCNCC1`, for which the IC50 in assay [1] stood at 0.047 µM.

With `Cc1cc(Nc2nc(Nc3ccccc3S(=O)(=O)C(C)C)c3c(C)[nH]nc3n2)c(OC(C)C)cc1C1CCN(C)CC1` [US8592432, 34], the IC50 in assay [2] was > 10 µM; in assay [3] it was 0.026 µM; in assay [1] it was 0.02 µM; in assay [4], 0.429 µM.

As for `Cc1cc(Nc2cc(Nc3ccccc3S(=O)(=O)C(C)C)c3cc[nH]c3n2)c(OC(C)C)cc1C1CCN(C)CC1`, the IC50 in assay [3] was 7.31 µM; in assay [1], 1.43 µM.

With `Cc1cc(Nc2nc(Nc3ccccc3S(=O)(=O)C(C)C)c3cccnc3n2)c(OC(C)C)cc1C1CCNCC1`, the IC50 in assay [1] worked out at 3.17 µM.

As for `Cc1cc(Nc2nc(Nc3ccccc3S(=O)(=O)C(C)C)c3cn[nH]c3n2)c(OC(C)C)cc1C1CCN(C)CC1`, the IC50 in assay [1] is 0.013 µM.

Consider `Cc1cc(Nc2nc(Nc3ccccc3S(=O)(=O)C(C)C)c3ccccc3n2)c(OC(C)C)cc1C1CCN(C)CC1`, for which, in assay [1], the IC50 came to 1.08 µM.

For `Cc1cc2c(Nc3ccccc3S(=O)(=O)C(C)C)nc(Nc3cc(C)c(C4CCN(C)CC4)cc3OC(C)C)nc2[nH]1`, the IC50 in assay [1] amounted to 1.3 µM.
